How the values were obtained:
PHD2 (EGLN1) = PHD2 (EGLN1) (Homo sapiens (Human), UniProt Q9GZT9); assay: HIF-PH assay (14CO2 capture), PHD2 enzyme inhibition; format: biochemical; conditions: Table 1; individual measurement; read-out: IC50 (μM) PHD2
PHD1 (EGLN2) = PHD1 (EGLN2) (Homo sapiens (Human), UniProt Q96KS0); assay: HIF-PH assay (14CO2 capture), PHD1 enzyme inhibition; format: biochemical; conditions: Table 1; for IC50: individual measurement, read-out: IC50 (μM) PHD1; for PHD2/PHD1: ratio of the IC50 of the compound for each enzyme
Chain of PHD1 (EGLN2) (Q96KS0 whole entry): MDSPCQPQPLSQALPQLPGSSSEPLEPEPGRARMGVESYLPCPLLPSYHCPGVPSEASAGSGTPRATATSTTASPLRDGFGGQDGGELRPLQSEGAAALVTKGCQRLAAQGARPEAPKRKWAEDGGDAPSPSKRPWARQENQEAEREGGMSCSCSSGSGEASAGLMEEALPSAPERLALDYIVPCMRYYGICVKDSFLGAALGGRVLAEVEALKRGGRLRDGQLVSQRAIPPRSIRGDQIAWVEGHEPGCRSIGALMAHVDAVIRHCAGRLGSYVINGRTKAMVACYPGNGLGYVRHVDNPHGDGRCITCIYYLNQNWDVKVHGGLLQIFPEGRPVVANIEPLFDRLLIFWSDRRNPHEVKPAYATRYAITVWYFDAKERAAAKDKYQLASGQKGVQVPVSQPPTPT

Chain of PHD2 (EGLN1) (Q9GZT9 whole entry): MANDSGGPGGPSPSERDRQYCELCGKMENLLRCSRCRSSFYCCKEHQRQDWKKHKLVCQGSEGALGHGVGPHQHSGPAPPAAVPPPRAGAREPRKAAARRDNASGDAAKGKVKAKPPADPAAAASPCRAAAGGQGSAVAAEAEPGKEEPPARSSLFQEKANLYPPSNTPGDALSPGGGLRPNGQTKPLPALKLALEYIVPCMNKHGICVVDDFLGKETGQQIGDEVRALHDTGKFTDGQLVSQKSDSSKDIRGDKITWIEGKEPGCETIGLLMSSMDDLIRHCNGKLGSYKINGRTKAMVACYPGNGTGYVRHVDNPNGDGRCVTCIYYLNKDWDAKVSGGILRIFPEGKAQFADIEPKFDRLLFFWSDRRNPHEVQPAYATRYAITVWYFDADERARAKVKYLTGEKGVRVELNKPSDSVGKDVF

SMILES | IC50 (PHD2 (EGLN1)) | IC50 (PHD1 (EGLN2)) | PHD2/PHD1 (PHD1 (EGLN2))
CC(C)(CNC(=O)c1nc(C#N)c2ccc(Oc3ccccc3)cc2c1O)C(=O)O [Compound 123, 3-[(1-Cyano-4-hydroxy-6-phenoxy-isoquinoline-3-carbonyl)-amino]-2,2-dimethyl-propionic acid] | 183 µM | 6.11 µM | 30
O=C(O)CCCCNC(=O)c1ncc2cc(Nc3ccccc3)ccc2c1O [Compound 124, 5-[(4-Hydroxy-7-phenylamino-isoquinoline-3-carbonyl)-amino]-pentanoic acid] | 200 µM | 25.4 µM | 8
COc1ccc(CNc2ccc3c(O)c(C(=O)NCCCCC(=O)O)ncc3c2)cc1 [Compound 125, 5-{[4-Hydroxy-7-(4-methoxy-benzylamino)-isoquinoline-3-carbonyl]-amino}-pentanoic acid] | 158 µM | 7.92 µM | 20
COc1ccc(CNc2ccc3c(O)c(C(=O)NCC(C)(C)C(=O)O)ncc3c2)cc1 [Compound 126, 3-{[4-Hydroxy-7-(4-methoxy-benzylamino)-isoquinoline-3-carbonyl]-amino}-2,2-dimethyl-propionic acid] | 200 µM | 34 µM | 6
N#Cc1nc(C(=O)NCCCCC(=O)O)c(O)c2cc(Oc3ccccc3)ccc12 [Compound 128, 5-[(1-Cyano-4-hydroxy-6-phenoxy-isoquinoline-3-carbonyl)-amino]-pentanoic acid] | 65.2 µM | 8.99 µM | 7
CC(C)(CNC(=O)c1ncc2cc(-c3ccccc3)ccc2c1O)C(=O)O [Compound 129, 3-[(4-Hydroxy-7-phenyl-isoquinoline-3-carbonyl)-amino]-2,2-dimethyl-propionic acid] | 180 µM | 25.3 µM | 7
O=C(O)CCCNC(=O)c1ncc2cc(NC(=O)NC3CCCCC3)ccc2c1O [Compound 131, 4-{[7-(3-Cyclohexyl-ureido)-4-hydroxy-isoquinoline-3-carbonyl]-amino}-butyric acid] | 77.6 µM | 3.16 µM | 25
CC(C)(CNC(=O)c1nc(-c2cncc(F)c2)c2cc(Oc3ccccc3)ccc2c1O)C(=O)O [Compound 136, 3-{[1-(5-Fluoro-pyridin-3-yl)-4-hydroxy-7-phenoxy-isoquinoline-3-carbonyl]-amino}-2,2-dimethyl-propionic acid] | 200 µM | 7.21 µM | 28
CC(C)(CNC(=O)c1nc(C#N)c2cc(NC(=O)c3ccc(F)cc3)ccc2c1O)C(=O)O [Compound 139, 3-{[1-cyano-7-(4-Fluoro-benzoylamino)-4-hydroxy-isoquinoline-3-carbonyl]-amino}-2,2-dimethyl-propionic acid] | 200 µM | 5.65 µM | 35
CC(C)(CNC(=O)c1nc(-c2ccccc2)c2cc(Oc3ccccc3)ccc2c1O)C(=O)O [Compound 143, 3-[(4-Hydroxy-7-phenoxy-1-phenyl-isoquinoline-3-carbonyl)-amino]-2,2-dimethyl-propionic acid] | 88.4 µM | 11.1 µM | 8

Stronger by IC50 (PHD2 (EGLN1)), values ahead:

IC50 (PHD2 (EGLN1)) | IC50 (PHD1 (EGLN2)) | PHD2/PHD1 (PHD1 (EGLN2)) | SMILES
63.1 µM | 7.69 µM | 8 | CC(C)(CNC(=O)c1ncc2cc(Sc3ccccc3)ccc2c1O)C(=O)O [Compound 127, 3-[(4-Hydroxy-7-phenylsulfanyl-isoquinoline-3-carbonyl)-amino]-2,2-dimethyl-propionic acid]
56.4 µM | 4.12 µM | 14 | O=C(O)CCCNC(=O)c1ncc2cc(NC(=O)Nc3ccc(F)cc3)ccc2c1O [Compound 142, 4-([7-[3-(4-Fluoro-phenyl)-ureido]-4-hydroxy-isoquinoline-3-carbonyl]-amino)-butyric acid]
39.6 µM | 4.91 µM | 8 | O=C(O)CCNC(=O)c1ncc2cc(NC(=O)NC3CCCCC3)ccc2c1O [Compound 130, 3-{[7-(3-Cyclohexyl-ureido)-4-hydroxy-isoquinoline-3-carbonyl]-amino}-propionic acid]
37.8 µM | 3 µM | 13 | O=C(O)CCNC(=O)c1ncc2cc(NC(=O)Nc3ccc(F)cc3)ccc2c1O [Compound 141, 3-({7-[3-(4-Fluoro-phenyl)-ureido]-4-hydroxy-isoquinoline-3-carbonyl}-amino)-propionic acid]
33.5 µM | 2.81 µM | 12 | CC(C)(CNC(=O)c1nc(C#N)c2cc(NC(=O)Nc3ccccc3)ccc2c1O)C(=O)O [Compound 140, 3{-[1-Cyano-4-hydroxy-7-(3-phenyl-ureido)-isoquinoline-3-carbonyl]-amino}-2,2-dimethyl-propionic acid]
29.3 µM | 2.57 µM | 11 | CC(C)(CNC(=O)c1nc(C#N)c2cc(CCc3ccccc3)ccc2c1O)C(=O)O [Compound 122, 3-[(1-Cyano-4-hydroxy-7-phenethyl-isoquinoline-3-carbonyl)-amino]-2,2-dimethyl-propionic acid]
27.6 µM | 2.38 µM | 12 | O=C(O)CCNC(=O)c1ncc2cc(-c3ccc(F)cc3)ccc2c1O [Compound 132, 3-{[7-(4-Fluoro-phenyl)-4-hydroxy-isoquinoline-3-carbonyl]-amino}-propionic acid]
24.1 µM | 1.13 µM | 21 | CC(C)(CNC(=O)c1nc(C#N)c2cc(-c3ccccc3)ccc2c1O)C(=O)O [Compound 138, 3-[(1-Cyano-4-hydroxy-7-phenyl-isoquinoline-3-carbonyl)-amino]-2,2-dimethyl-propionic acid]
13.4 µM | 2.15 µM | 6 | O=C(O)CCCNC(=O)c1ncc2cc(NC(=O)NCc3ccccc3)ccc2c1O [Compound 134, 4-{[7-(3-Benzyl-ureido)-4-hydroxy-isoquinoline-3-carbonyl]-amino}-butyric acid]
8.18 µM | 0.84 µM | 10 | CC(C)(CNC(=O)c1nc(C#N)c2cc(Sc3ccccc3)ccc2c1O)C(=O)O [Compound 121, 3-[(1-Cyano-4-hydroxy-7-phenylsulfanyl-isoquinoline-3-carbonyl)-amino]-2,2-dimethyl-propionic acid]
6.06 µM | 0.85 µM | 7 | O=C(O)CCNC(=O)c1ncc2cc(NC(=O)NCc3ccccc3)ccc2c1O [Compound 133, 3-{[7-(3-Benzyl-ureido)-4-hydroxy-isoquinoline-3-carbonyl]-amino}-propionic acid]
3.67 µM | 0.61 µM | 6 | N#Cc1nc(C(=O)NCCC(=O)O)c(O)c2ccc(-c3ccccc3)cc12 [Compound 137, 3-[(1-Cyano-4-hydroxy-7-phenyl-isoquinoline-3-carbonyl)-amino]-propionic acid]
2.88 µM | 0.35 µM | 8 | O=C(O)CCNC(=O)c1ncc2cc(S(=O)(=O)C3CCCCC3)ccc2c1O [Compound 135, 3-[(7-Cyclohexanesulfonyl-4-hydroxy-isoquinoline-3-carbonyl)-amino]-propionic acid]
